Molecular target: T1, LXRβ (Homo sapiens, UniProt P55055)
T1 construct: Co-transfection expression plasmids, comprising full-length LXRα (pCMX-h LXRα or LXRβ (pCMX-hLXRβ)); expressed in transfected cells; host or cells: CV-1 African green monkey kidney cells, transient transfection with pCMX-hLXRβ
T1 sequence (P55055 1-460): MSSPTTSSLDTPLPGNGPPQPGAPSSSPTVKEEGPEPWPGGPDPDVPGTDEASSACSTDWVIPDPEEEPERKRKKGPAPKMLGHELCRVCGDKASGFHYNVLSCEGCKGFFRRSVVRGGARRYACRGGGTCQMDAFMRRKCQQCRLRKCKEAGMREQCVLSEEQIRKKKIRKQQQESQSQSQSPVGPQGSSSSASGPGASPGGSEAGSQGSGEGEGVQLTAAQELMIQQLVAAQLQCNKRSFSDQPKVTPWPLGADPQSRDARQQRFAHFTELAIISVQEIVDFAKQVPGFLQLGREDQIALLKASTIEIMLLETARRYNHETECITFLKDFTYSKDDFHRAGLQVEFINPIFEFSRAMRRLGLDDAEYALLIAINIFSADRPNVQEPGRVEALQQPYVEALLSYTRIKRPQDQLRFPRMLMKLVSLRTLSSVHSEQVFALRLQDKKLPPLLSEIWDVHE
T1 sequence (P19793 1-462 partner): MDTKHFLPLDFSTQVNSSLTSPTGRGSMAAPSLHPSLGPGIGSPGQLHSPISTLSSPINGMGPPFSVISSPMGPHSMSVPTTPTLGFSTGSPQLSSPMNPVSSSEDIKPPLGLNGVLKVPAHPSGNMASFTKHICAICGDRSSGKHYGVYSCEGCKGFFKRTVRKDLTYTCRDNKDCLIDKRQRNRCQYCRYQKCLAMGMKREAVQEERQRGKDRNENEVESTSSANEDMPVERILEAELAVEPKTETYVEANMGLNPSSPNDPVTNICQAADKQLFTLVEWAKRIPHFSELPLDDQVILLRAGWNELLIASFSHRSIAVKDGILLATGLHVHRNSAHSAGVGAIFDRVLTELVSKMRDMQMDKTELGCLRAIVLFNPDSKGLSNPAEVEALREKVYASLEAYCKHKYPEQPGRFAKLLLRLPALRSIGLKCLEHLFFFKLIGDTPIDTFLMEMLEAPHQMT
Assay: LXR/LXRE co-transfection assay (luciferase reporter) in CV-1 cells, LXRβ
Type: cell-based
Settings: for EC50: CV-1 cells transfected with pCMX-hLXRβ and LXREx1-Tk-Luciferase, 20 hours incubation, read-out: LXRbeta agonism EC50; for Emax: read-out: LXRbeta % EFFICACY
Method in brief: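 CV-1 cells transiently co-transfected with full-length human LXRβ, LXRE-Tk-luciferase reporter and β-galactosidase control, then exposed to compound (≤0.5% DMSO) for 20 h at 37 °C before luminescence read. EC50 from 10-point, half-log dose curves; efficacy relative to the sulfonamide high control, means of 2–3 experiments.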

[1] = CV-1 cells, relative to maximum response of high control N-(3-((4-fluorophenyl)-(naphthalene-2-sulfonyl)amino)propyl)-2,2-dimethylpropionamide

| SMILES | EC50 [nM] | Emax [1] [%] | LXRbeta % EFFICACY [1] [%] |
| --- | --- | --- | --- |
| Cn1nc(C(=O)NC(C)(C)C)cc1-c1ccc(-c2cccc(S(C)(=O)=O)c2)cc1-n1nncc1-c1ccc(OC(F)(F)F)cc1 [Example 40, N-(1,1-dimethylethyl)-1-methyl-5-[3′-(methylsulfonyl)-3-(5-{4-[(trifluoromethyl)oxy]phenyl}-1H-1,2,3-triazol-1-yl)biphenyl-4-yl]-1H-pyrazole-3-carboxamide] | 695 | 76 |  |
| Cc1nc(-c2ccc(OC(F)(F)F)cc2)c(-c2cc(-c3cccc(S(C)(=O)=O)c3)ccc2-n2ccc(C(N)=O)n2)o1 [Example 308, 1-(3-(2-methyl-4-(4-(trifluoromethoxy)phenyl)oxazol-5-yl)-3′-(methylsulfonyl)biphenyl-4-yl)-1H-pyrazole-3-carboxamide] | 1650 | 29 |  |
| Cc1nc(-c2ccc(OC(F)(F)F)cc2)c(-c2cc(-c3cccc(S(C)(=O)=O)c3)ccc2-n2ccc(C(C)O)n2)o1 (single isomer, unassigned) [Example 368, 1-(1-(3-(2-methyl-4-(4-(trifluoromethoxy)phenyl)oxazol-5-yl)-3′-(methylsulfonyl)-[1,1′-biphenyl]-4-yl)-1H-pyrazol-3-yl)ethanol] | 890 |  | 50 |
| Cc1nc(-c2ccc3c(c2)OC(F)(F)O3)c(-c2cc(-c3cc(F)c(CO)c(S(C)(=O)=O)c3)ccc2-c2cc(C(F)(F)C(=O)NCC3CC3)nn2C)o1 [Example 87, N-(cyclopropylmethyl)-2-(5-(3-(4-(2,2-difluorobenzo[d][1,3]dioxol-5-yl)-2-methyloxazol-5-yl)-3′-fluoro-4′-(hydroxymethyl)-5′-(methylsulfonyl)biphenyl-4-yl)-1-methyl-1H-pyrazol-3-yl)-2,2-difluoroacetamide] | 134 | 33 |  |
| Cc1nc(-c2ccc3c(c2)OC(F)(F)O3)c(-c2cc(-c3cccc(S(C)(=O)=O)c3)ccc2-n2ccc(C(N)=O)n2)o1 [Example 359, 1-(3-(4-(2,2-difluorobenzo[d][1,3]dioxol-5-yl)-2-methyloxazol-5-yl)-3′-(methylsulfonyl)-[1,1′-biphenyl]-4-yl)-1H-pyrazole-3-carboxamide] | 316 | 14 |  |
| CS(=O)(=O)c1cccc(-c2ccc(-n3ccc(C(F)(F)F)n3)c(-c3nc(C4CC4)oc3-c3ccc(OC(F)(F)F)cc3)c2)c1 [Example 403, 2-cyclopropyl-4-(3′-(methylsulfonyl)-4-(3-(trifluoromethyl)-1H-pyrazol-1-yl)biphenyl-3-yl)-5-(4-(trifluoromethoxy)phenyl)oxazole] | 82 | 62 |  |
| CNC(=O)C(F)(F)c1cc(-c2ccc(-c3cc(F)c(CO)c(S(C)(=O)=O)c3)cc2-c2nc(C)oc2-c2ccc3c(c2)OC(F)(F)O3)n(C)n1 [Example 91, 2-(5-(3-(5-(2,2-difluorobenzo[d][1,3]dioxol-5-yl)-2-methyloxazol-4-yl)-3′-fluoro-4′-(hydroxymethyl)-5′-(methylsulfonyl)biphenyl-4-yl)-1-methyl-1H-pyrazol-3-yl)-2,2-difluoro-N-methylacetamide] | 135 | 45 |  |
| Cc1nc(-c2ccc(OC(F)(F)F)cc2)c(-c2cc(-c3cc(F)c(CO)c(S(C)(=O)=O)c3)ccc2-n2ccc(C(C)(C)O)n2)o1 [Example 317, 2-(1-(3′-fluoro-4′-(hydroxymethyl)-3-(2-methyl-4-(4-(trifluoromethoxy)phenyl)oxazol-5-yl)-5′-(methylsulfonyl)biphenyl-4-yl)-1H-pyrazol-3-yl)propan-2-ol] | 92 | 27 |  |
| Cc1nc(-c2cc(-c3cccc(S(C)(=O)=O)c3)ccc2-n2ccc(C(C)(C)O)n2)c(-c2ccc(OC(F)(F)F)cc2)o1 [Example 417, 2-(1-(3-(2-methyl-5-(4-(trifluoromethoxy)phenyl)oxazol-4-yl)-3′-(methylsulfonyl)-[1,1′-biphenyl]-4-yl)-1H-pyrazol-3-yl)propan-2-ol] | 1010 | 16 |  |
| Cn1nc(C(F)(F)C(C)(C)O)cc1-c1ccc(-c2cccc(S(C)(=O)=O)c2)cc1-n1nncc1-c1ccc(OC(F)(F)F)cc1 [Example 7, 1,1-difluoro-2-methyl-1-(1-methyl-5-(3′-(methylsulfonyl)-3-(5-(4-(trifluoromethoxy)phenyl)-1H-1,2,3-triazol-1-yl)biphenyl-4-yl)-1H-pyrazol-3-yl)propan-2-ol] | 377 | 66 |  |
| Cc1nc(-c2ccc(OC(F)(F)F)cc2)c(-c2cc(-c3cc(F)c(CO)c(S(C)(=O)=O)c3)ccc2-n2nc(C(F)(F)F)cc2C2CC2)o1 [Example 323, (4′-(5-cyclopropyl-3-(trifluoromethyl)-1H-pyrazol-1-yl)-3-fluoro-3′-(2-methyl-4-(4-(trifluoromethoxy)phenyl)oxazol-5-yl)-5-(methylsulfonyl)biphenyl-4-yl)methanol] | 948 | 48 |  |

Now those with a lower EC50, led by results:

| EC50 [nM] | Emax [1] [%] | LXRbeta % EFFICACY [1] [%] | SMILES |
| --- | --- | --- | --- |
| 29 | 93 |  | Cc1nc(-c2cc(-c3cccc(S(C)(=O)=O)c3)ccc2-n2nc(C(F)(F)F)cc2Cl)c(-c2ccc3c(c2)OC(F)(F)O3)o1 [Example 412, 4-(4-(5-chloro-3-(trifluoromethyl)-1H-pyrazol-1-yl)-3′-(methylsulfonyl)biphenyl-3-yl)-5-(2,2-difluorobenzo[d][1,3]dioxol-5-yl)-2-methyloxazole] |
| 7 | 86 |  | Cc1nc(-c2ccc3c(c2)OC(F)(F)O3)c(-c2cc(-c3cccc(S(C)(=O)=O)c3)ccc2-c2cc(C3(C#N)CC3)nn2C)o1 [Example 118, 1-(5-(3-(4-(2,2-difluorobenzo[d][1,3]dioxol-5-yl)-2-methyloxazol-5-yl)-3′-(methylsulfonyl)-[1,1′-biphenyl]-4-yl)-1-methyl-1H-pyrazol-3-yl) cyclopropanecarbonitrile] |
| 7 | 84 |  | Cc1nc(-c2cc(-c3cc(F)c(CO)c(S(C)(=O)=O)c3)ccc2-n2nc(C(F)(F)F)cc2C)c(-c2ccc3c(c2)OC(F)(F)O3)o1 [Example 389, (3′-(5-(2,2-difluorobenzo[d][1,3]dioxol-5-yl)-2-methyloxazol-4-yl)-3-fluoro-4′-(5-methyl-3-(trifluoromethyl)-1H-pyrazol-1-yl)-5-(methylsulfonyl)biphenyl-4-yl)methanol] |
| 22 | 35 |  | Cc1nc(-c2ccc(OC(F)(F)F)cc2)c(-c2cc(-c3cc(F)c(CO)c(S(C)(=O)=O)c3)ccc2-n2cc(Cl)c(C(C)(C)O)n2)o1 [Example 443] |
| 42 | 79 |  | Cn1nc(C(F)F)cc1-c1ccc(-c2cc(F)c(CO)c(S(C)(=O)=O)c2)cc1-n1nncc1-c1ccc(OC(F)(F)F)cc1 [Example 23, {4′-[3-(difluoromethyl)-1-methyl-1H-pyrazol-5-yl]-3-fluoro-5-(methylsulfonyl)-3′-(5-{4-[(trifluoromethyl)oxy]phenyl}-1H-1,2,3-triazol-1-yl)biphenyl-4-yl}methanol] |
| 74 | 66 |  | Cc1nc(-c2ccc3c(c2)OC(F)(F)O3)c(-c2cc(-c3cc(F)c(CO)c(S(C)(=O)=O)c3)ccc2-c2cc(C(F)(F)CO)nn2C)o1 [Example 105, 2-(5-(3-(4-(2,2-difluorobenzo[d][1,3]dioxol-5-yl)-2-methyloxazol-5-yl)-3′-fluoro-4′-(hydroxymethyl)-5′-(methylsulfonyl)-[1,1′-biphenyl]-4-yl)-1-methyl-1H-pyrazol-3-yl)-2,2-difluoroethanol] |
| 12 | 78 |  | Cc1nc(-c2ccc(OC(F)F)cc2)c(-c2cc(-c3cc(F)c(CO)c(S(C)(=O)=O)c3)ccc2-n2nc(C(F)(F)F)cc2C)o1 [Example 325, (3′-(4-(4-(difluoromethoxy)phenyl)-2-methyloxazol-5-yl)-3-fluoro-4′-(5-methyl-3-(trifluoromethyl)-1H-pyrazol-1-yl)-5-(methylsulfonyl)biphenyl-4-yl) methanol] |
| 19 | 79 |  | Cc1nc(-c2ccc(OC(F)F)cc2Cl)c(-c2cc(-c3cc(F)c(CO)c(S(C)(=O)=O)c3)ccc2-n2cc(Cl)c(C(F)(F)F)n2)o1 [Example 432, (4′-(4-chloro-3-(trifluoromethyl)-1H-pyrazol-1-yl)-3′-(4-(2-chloro-4-(difluoromethoxy)phenyl)-2-methyloxazol-5-yl)-3-fluoro-5-(methylsulfonyl)-[1,1′-biphenyl]-4-yl)methanol] |
